Reference: patent US20140023611A1 (priority 2010, published 2014)
Each block holds one compound with its values, some of them ahead of it.

Experiments:
rat NaP2b (SLC34A2) [1] = target: T1, rat NaP2b (SLC34A2) (Rattus norvegicus, UniProt Q9JJ09); experiment: NaP2b-mediated Pi transport (33P uptake) in transfected HEK293 cells, rat NaP2b; format: cell-based; settings: HEK293, 0.1 mM phosphate
T1 construct: host or cells: HEK293
T1 sequence (Q9JJ09 1-695): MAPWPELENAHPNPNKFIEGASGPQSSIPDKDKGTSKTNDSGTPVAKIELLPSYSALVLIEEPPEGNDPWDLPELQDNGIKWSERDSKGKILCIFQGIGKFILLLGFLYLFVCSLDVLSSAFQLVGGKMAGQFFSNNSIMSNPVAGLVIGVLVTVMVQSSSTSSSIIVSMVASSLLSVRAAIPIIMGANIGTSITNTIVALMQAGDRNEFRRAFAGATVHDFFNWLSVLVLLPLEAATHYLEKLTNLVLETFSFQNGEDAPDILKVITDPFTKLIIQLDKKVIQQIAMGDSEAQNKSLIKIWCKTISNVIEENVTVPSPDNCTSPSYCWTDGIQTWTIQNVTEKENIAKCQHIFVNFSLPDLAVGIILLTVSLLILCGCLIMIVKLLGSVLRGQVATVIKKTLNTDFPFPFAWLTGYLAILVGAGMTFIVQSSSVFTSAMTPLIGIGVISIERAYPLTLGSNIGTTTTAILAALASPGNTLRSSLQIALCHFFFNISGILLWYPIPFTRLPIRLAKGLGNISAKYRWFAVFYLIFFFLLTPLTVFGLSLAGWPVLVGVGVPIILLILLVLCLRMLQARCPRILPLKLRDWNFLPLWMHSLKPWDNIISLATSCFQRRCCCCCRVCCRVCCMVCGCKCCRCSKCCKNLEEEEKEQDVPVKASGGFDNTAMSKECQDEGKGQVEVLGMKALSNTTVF
Outline: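 HEK293 cells transiently transfected with NaP2b cDNA, endogenous PiT transport suppressed; ^33P-phosphate uptake measured in sodium vs choline buffer (100 uM KH2PO4, pH 7.4) for 3–30 min at room temperature. Twelve concentrations, 0.1 nM–30 uM, in duplicate; uptake by scintillation counting, pIC50 calculated.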

NaPi2b [2] = experiment: Competition with phosphate: Pi uptake assay repeated at 2.1 vs 0.1 mM phosphate; format: cell-based; settings: potency at 2.1 vs 0.1 mM phosphate
Text: For example, a phosphate uptake assay can be performed and the IC50 values for a compound at different phosphate concentrations can be determined (e.g., “Enzyme kinetics”, I. Segel, 1975, John-Wiley & Sons, p. 123). IC50 values for non-competitive inhibitors will remain the same or similar with respect to the phosphate concentration, whereas IC50 values for competitive inhibitors will increase (i.e lose potency) as phosphate concentration increases.
(§1) To ascertain if an inhibitor was competitive for binding with phosphate, the procedure was repeated, but raising the concentration of the substrate in the assay mixture from 0.1 to 2.1 mM phosphate.

NaPi2b [3] = target: T2, NaPi2b (Rattus norvegicus, UniProt Q9JJ09); experiment: Competition with phosphate: Pi transport assay repeated at 2.1 vs 0.1 mM phosphate; format: cell-based; settings: potency at 2.1 vs 0.1 mM phosphate
T2 construct: host or cells: HEK293
T2 sequence (Q9JJ09 1-695): T1 sequence (Q9JJ09 1-695)
Protocol: as §1

rat NaP2b (SLC34A2) [4] = target: T1, rat NaP2b (SLC34A2); experiment: Inhibition of NaP2b-mediated Pi (33P) uptake in transfected HEK293 cells, rat NaP2b; format: cell-based; settings: 33P Pi uptake, 0.1 mM phosphate, value given as pIC50 range
Outline: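 The cells transiently expressed NaP2b after Lipofectamine transfection. Each compound was run in duplicate over twelve concentrations, 0.1 nM–30 uM.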

[5] = tested on: Uptake of Phosphorus from the Intestine; experiment: In vivo bolus phosphorus challenge; design: species or system rat; settings: Sprague-Dawley rats on low-phosphorus diet; oral Drug Dose 30, 15 min before phosphate bolus; serum 30 min post bolus
Protocol: By pretreating animals with a low phosphorus diet followed by the subsequent dosing of a phosphorus bolus, serum phosphorus levels were monitored after 30 minutes as a surrogate for intestinal phosphorus absorption. […] The in vivo bolus phosphorus challenge model used here mimics this model in rats.
Male, 7-week-old Sprague-Dawley rats (Charles-River laboratories international, Hollister, Calif.) were allowed to acclimatize for a minimum of 3 days before switching to a synthetic low-phosphorus diet (TD.85010, Harlan Teklad, Madison, Wis.) which contains 0.1% phosphorus and 0.6% calcium. At day 5, testing compounds or vehicle alone (as indicated) were orally administered at the indicated dose in a volume of 5 ml/kg, followed by a bolus gavage of monobasic sodium phosphate (1 mmol in 1 ml) 15 min after compound dosing. Serum was collected via retroorbital bleeding 30 min post phosphate bolus and phosphate levels were determined utilizing an ACE ALERA blood chemistry analyzer (Alfa Wassermann Diagnostic Technologies, West Caldwell, N.J.).
The extent of inhibition by test compounds on the elevation of serum phosphate levels in response to the bolus of phosphorus is shown in Table 12 (data are expressed as % Inhibition, with 6-10 animals per data point). The differences between groups were evaluated by one-way analysis of variance with Dunnett's post hoc tests.

[6] = Determination of compound Cmax and AUC after oral gavage (plasma LC-MS/MS); format: in vivo, Sprague-Dawley rats; settings: Sprague-Dawley, rat, plasma, po, Structure (II) examples, Table 6, actual oral dose 7.6-11 mg/kg
Outline: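 Plasma exposure measured by LC-MS/MS after acetonitrile precipitation with internal standard, quantified against a standard curve made in plasma. Compound given orally by gavage to Sprague-Dawley rats at nominal 2.5 or 10 mg/kg, with K2EDTA plasma sampled at 0.5, 1, 2 and 4 h.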

human NaP2b (SLC34A2) = target: T3, human NaP2b (SLC34A2) (Homo sapiens, UniProt O95436); experiment: NaP2b-mediated Pi transport (33P uptake) in transfected HEK293 cells, human NaP2b; format: cell-based; settings: Structure (II) examples, Table 2; HEK293, 0.1 mM phosphate; read-out: pIC50 range for human Nap2b (converted)
T3 construct: host or cells: HEK293
T3 sequence (O95436 1-690): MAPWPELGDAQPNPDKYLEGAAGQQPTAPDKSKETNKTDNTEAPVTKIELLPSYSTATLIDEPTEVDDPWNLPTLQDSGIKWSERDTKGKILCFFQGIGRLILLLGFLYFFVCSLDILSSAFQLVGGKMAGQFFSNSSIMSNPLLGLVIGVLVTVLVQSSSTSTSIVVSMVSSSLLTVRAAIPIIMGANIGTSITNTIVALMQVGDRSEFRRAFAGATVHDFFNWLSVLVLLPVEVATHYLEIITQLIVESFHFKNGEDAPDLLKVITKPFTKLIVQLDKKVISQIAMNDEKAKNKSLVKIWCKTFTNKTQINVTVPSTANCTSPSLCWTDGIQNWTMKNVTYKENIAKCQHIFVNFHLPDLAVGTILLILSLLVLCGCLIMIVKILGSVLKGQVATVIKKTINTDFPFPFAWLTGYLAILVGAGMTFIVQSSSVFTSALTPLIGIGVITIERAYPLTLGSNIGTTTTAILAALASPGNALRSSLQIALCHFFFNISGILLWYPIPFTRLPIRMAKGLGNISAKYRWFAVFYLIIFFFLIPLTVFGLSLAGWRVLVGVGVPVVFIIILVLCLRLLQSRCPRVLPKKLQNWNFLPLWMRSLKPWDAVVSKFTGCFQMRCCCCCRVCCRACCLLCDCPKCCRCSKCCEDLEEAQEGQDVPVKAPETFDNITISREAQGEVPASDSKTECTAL
Protocol: HEK293 cells were obtained from the American Type Culture collection and propagated per their instructions. Expression clones for rat and human NaP2b (SLC34A2) were obtained from Open Biosystems (Catalog numbers MRN1768-9510282, and MHS1010-99823026, respectively). The sequence of the human protein was mutated to insert a threonine after residue 37, and to introduce a N39D mutation.
The rate of phosphate (Pi) uptake into HEK293 cells was measured using a modification of the method described by Mohrmann et al. (Mohrmann, I., Mohrmann, M., Biber, J., and Murer, H. (1986) Am. J. Phys. 250(3 Pt 1):G323-30.) Transfected HEK293 cells were treated with a pharmacological agent to minimize endogenous PiT-mediated phosphate transport activity, such that the only remaining sodium-dependent phosphate transport activity is that which was bestowed by introduction of the NaP2b genes.
Cells were seeded into 96-well plates at 25,000 cells/well and cultured overnight. […]
After incubation for 3-30 minutes at room temperature, assay mixtures were removed, and the cells were washed twice with ice cold stop solution (137 mM sodium chloride, 14 mM Tris, pH 7.4). Cells were lysed by addition of 20 μL 0.1% Tween 80 followed by 100 μL scintillation fluid, and counted using a TopCount (Perkin Elmer).
pIC50 (the negative log of the IC50) values of the test compounds were calculated using GraphPad Prism.

[7] = Structure (II) examples, Table 2
[8] = Structure (III) examples, Table 2
[9] = Structure (IV) examples, Table 1

pIC50 range for rat Nap2b (rat NaP2b (SLC34A2) [1]; [7]): 2-3
pIC50 range for rat Nap2b (rat NaP2b (SLC34A2) [1]; [8]): 2-3
pIC50 range for rat Nap2b (rat NaP2b (SLC34A2) [1]; [9]): 2-3
Competitive with respect to Pi? (NaPi2b [3]; [7]): Yes
Competitive with respect to Pi? (NaPi2b [3]; [8]): Yes
Competitive with respect to Pi? (NaPi2b [3]; [9]): Yes
pIC50 range for rat Nap2b (rat NaP2b (SLC34A2) [4]): 2-3
Structure (SMILES): O=C(O)P(=O)(O)O [PFA]
Competitive with respect to Pi? (NaPi2b [2]): Yes

IC50 (rat NaP2b (SLC34A2) [4]): 10 to 31.6 µM
Structure (SMILES): O=C(NCCN1CCOCC1)c1cccc(C(=O)Nc2ccc(N3CCCCC3)cc2-c2cc(C(=O)NCc3cccc(C(F)(F)F)c3)ccn2)c1 [Example 4.4, N1-(2-Morpholinoethyl)-N3-(4-(piperidin-1-yl)-2-(4-((3-(trifluoromethyl)benzyl)carbamoyl)pyridin-2-yl)phenyl)isophthalamide]
% Inhibition of Serum P elevation [5]: 40-50%

Cmax [6]: 3 ng/mL
IC50 (rat NaP2b (SLC34A2) [1]; Structure (II) examples, Table 2, read-out: pIC50 range for rat Nap2b (converted)): < 1 µM
IC50 (human NaP2b (SLC34A2)): < 1 µM
Structure (SMILES): O=C(O)CCOCCOCCOCCNC(=O)c1cccc(C(=O)Nc2ccc(Cl)cc2C(=O)Nc2ccn(-c3cccc(C(F)(F)F)c3)n2)c1 [Example 25]
